The record followed here is ChEMBL document CHEMBL4507291 (2021).

As usually defined, the inhibition is the drop in the measured response relative to a control, in per cent.

In test [1] the target is ALK tyrosine kinase receptor (Homo sapiens) (UniProt Q9UM73).
Test [2] deals with T1, Ephrin type-A receptor 8 (Homo sapiens) (UniProt P29322).
T1 sequence (whole entry): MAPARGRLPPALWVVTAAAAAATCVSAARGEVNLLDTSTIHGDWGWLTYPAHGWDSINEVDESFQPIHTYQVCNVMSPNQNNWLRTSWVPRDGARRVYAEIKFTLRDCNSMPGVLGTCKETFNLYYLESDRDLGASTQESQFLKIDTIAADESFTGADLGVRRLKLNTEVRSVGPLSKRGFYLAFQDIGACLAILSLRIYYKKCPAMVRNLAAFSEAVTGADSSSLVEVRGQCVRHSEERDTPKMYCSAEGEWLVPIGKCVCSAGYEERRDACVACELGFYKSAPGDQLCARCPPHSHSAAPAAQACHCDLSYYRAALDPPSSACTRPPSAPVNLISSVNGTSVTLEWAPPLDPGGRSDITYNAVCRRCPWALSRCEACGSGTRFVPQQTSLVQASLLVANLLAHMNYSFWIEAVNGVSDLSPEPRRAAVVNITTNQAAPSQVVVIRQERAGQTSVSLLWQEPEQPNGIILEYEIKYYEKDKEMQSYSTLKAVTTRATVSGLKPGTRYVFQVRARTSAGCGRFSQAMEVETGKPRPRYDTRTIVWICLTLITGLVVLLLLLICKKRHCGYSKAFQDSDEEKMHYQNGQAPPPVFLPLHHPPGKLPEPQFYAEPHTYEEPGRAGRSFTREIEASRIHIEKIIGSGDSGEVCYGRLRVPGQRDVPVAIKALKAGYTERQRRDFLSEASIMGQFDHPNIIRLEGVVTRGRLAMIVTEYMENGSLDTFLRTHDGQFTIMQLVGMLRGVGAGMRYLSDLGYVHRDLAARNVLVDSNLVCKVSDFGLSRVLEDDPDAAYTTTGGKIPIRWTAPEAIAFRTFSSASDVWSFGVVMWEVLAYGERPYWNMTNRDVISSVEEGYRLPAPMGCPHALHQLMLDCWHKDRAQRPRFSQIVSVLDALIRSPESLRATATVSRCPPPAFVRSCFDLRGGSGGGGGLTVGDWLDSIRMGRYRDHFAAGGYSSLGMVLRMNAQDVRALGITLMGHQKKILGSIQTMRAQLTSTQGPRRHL

Test [3] concerns Fibroblast growth factor receptor 3 (Homo sapiens), P22607 [G697C].
Test [4] deals with Receptor-type tyrosine-protein kinase FLT3 (Homo sapiens), P36888 [N841I].
Test [5] has as its system Mast/stem cell growth factor receptor Kit (Homo sapiens), P10721 [D816H].
In test [6] the test system is Mast/stem cell growth factor receptor Kit (Homo sapiens), P10721 [V559D,V654A].
Test [7] addresses Mitogen-activated protein kinase kinase kinase 1 (Homo sapiens) (UniProt Q13233).
Test [8] addresses T2, MAP kinase-activated protein kinase 5 (Homo sapiens) (UniProt Q8IW41).
T2 sequence (whole entry): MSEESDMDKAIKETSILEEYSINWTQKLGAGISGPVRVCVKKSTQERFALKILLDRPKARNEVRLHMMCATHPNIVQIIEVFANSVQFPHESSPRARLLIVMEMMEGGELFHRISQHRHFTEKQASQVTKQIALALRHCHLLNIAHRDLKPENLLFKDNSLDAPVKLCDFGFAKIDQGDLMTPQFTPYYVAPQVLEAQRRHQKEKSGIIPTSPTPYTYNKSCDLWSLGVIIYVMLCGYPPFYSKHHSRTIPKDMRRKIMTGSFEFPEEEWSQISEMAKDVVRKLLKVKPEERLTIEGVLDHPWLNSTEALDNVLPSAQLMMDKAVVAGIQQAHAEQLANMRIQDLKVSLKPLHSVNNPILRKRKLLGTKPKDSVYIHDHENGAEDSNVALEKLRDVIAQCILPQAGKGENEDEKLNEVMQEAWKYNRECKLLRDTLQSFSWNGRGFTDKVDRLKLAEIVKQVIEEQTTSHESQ

Test [9] concerns the target Dual specificity mitogen-activated protein kinase kinase 4 (Homo sapiens) (UniProt P45985).
Test [10] concerns the target 3-phosphoinositide-dependent protein kinase 1 (Homo sapiens) (UniProt O15530).
Test [11] concerns the target Serine/threonine-protein kinase RIO2 (Homo sapiens) (UniProt Q9BVS4).
Test [12] deals with Ribosomal protein S6 kinase alpha-2 (Homo sapiens) (UniProt Q15349).
The target of test [13] is Serine/threonine-protein kinase SIK2 (Homo sapiens) (UniProt Q9H0K1).
Test [14] concerns the target Transient receptor potential cation channel subfamily M member 6 (Homo sapiens) (UniProt Q9BX84).
Test [15] deals with T3, Tyrosine-protein kinase TXK (Homo sapiens) (UniProt P42681).
T3 sequence (whole entry): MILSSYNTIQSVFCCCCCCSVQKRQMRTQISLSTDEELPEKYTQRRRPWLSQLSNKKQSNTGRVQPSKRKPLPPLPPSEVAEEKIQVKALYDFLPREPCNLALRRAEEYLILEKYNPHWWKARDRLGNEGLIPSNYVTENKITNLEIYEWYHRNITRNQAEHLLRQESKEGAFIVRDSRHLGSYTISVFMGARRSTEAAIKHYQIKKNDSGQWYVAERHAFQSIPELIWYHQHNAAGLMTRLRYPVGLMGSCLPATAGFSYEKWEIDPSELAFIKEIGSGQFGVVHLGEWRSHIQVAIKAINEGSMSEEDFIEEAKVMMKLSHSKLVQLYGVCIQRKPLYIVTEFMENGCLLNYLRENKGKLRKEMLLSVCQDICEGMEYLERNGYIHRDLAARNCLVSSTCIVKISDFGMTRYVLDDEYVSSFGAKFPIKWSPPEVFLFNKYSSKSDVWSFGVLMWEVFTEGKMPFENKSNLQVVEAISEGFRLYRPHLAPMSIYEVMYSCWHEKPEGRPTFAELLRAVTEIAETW

Test [16] deals with Serine/threonine-protein kinase VRK2 (Homo sapiens) (UniProt Q86Y07).
For test [17], the target named is 5-hydroxytryptamine receptor 1B (Homo sapiens) (UniProt P28222). The conditions noted are these: Compound concentration 10.0 uM.
For test [18], the target named is Kappa-type opioid receptor (Homo sapiens) (UniProt P41145). The note with it: Compound concentration 10.0 uM.
[19] abbreviates: Compound concentration 1000.0 nM.
Setting [20] is: Compound concentration 100.0 nM.

Chain of Kappa-type opioid receptor (Homo sapiens) (P41145 whole entry): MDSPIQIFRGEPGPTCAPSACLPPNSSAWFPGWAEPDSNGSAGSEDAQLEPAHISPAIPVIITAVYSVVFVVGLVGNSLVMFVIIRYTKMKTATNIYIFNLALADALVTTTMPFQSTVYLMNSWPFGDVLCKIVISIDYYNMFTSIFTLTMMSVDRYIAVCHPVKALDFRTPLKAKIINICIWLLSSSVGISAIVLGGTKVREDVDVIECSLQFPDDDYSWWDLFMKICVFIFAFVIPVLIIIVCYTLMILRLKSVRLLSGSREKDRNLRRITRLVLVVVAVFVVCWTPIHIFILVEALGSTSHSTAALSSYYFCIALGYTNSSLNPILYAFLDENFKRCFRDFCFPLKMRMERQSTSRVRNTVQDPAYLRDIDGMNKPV
Chain of 5-hydroxytryptamine receptor 1B (Homo sapiens) (P28222 whole entry): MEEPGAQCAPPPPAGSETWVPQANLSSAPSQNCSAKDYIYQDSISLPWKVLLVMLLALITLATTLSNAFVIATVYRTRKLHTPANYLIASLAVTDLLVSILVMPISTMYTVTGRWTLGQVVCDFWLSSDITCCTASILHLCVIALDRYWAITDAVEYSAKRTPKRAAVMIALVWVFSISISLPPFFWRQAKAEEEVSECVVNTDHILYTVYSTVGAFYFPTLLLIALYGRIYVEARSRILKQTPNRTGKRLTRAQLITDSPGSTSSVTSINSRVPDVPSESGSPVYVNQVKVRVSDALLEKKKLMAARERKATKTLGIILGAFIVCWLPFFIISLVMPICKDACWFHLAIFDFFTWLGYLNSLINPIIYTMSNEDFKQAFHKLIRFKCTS
Chain of Mast/stem cell growth factor receptor Kit (Homo sapiens), P10721 [V559D,V654A] (P10721 whole entry V559D/V654A): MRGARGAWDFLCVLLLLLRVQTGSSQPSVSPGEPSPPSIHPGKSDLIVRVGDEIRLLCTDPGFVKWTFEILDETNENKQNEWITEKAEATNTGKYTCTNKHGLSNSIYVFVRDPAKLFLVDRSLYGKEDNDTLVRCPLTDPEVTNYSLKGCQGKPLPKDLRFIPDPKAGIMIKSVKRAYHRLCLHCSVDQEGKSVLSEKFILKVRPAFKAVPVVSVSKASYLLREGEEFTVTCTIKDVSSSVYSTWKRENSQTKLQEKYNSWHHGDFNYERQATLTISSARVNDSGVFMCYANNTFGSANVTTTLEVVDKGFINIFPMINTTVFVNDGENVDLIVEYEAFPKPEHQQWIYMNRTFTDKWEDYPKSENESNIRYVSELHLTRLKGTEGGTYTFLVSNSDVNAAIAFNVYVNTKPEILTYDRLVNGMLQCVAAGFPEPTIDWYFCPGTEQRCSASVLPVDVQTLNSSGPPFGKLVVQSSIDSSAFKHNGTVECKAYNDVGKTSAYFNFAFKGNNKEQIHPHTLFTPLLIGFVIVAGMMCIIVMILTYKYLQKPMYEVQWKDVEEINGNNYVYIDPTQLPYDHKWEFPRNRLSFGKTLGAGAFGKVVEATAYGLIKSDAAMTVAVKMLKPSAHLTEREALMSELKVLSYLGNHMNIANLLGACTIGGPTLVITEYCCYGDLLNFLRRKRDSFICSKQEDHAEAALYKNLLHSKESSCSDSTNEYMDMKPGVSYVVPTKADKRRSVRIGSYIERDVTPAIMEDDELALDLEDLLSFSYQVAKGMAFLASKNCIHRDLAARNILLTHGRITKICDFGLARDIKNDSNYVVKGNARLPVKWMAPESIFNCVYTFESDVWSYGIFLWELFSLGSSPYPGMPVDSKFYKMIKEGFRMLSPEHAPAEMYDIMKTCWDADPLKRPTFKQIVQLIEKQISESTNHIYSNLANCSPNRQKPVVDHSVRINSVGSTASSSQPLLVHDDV
Chain of Mast/stem cell growth factor receptor Kit (Homo sapiens), P10721 [D816H] (P10721 whole entry D816H): as the sequence (P10721 whole entry V559D/V654A) above, with D559V, A654V, D816H counted along it
Chain of Fibroblast growth factor receptor 3 (Homo sapiens), P22607 [G697C] (P22607 whole entry G697C): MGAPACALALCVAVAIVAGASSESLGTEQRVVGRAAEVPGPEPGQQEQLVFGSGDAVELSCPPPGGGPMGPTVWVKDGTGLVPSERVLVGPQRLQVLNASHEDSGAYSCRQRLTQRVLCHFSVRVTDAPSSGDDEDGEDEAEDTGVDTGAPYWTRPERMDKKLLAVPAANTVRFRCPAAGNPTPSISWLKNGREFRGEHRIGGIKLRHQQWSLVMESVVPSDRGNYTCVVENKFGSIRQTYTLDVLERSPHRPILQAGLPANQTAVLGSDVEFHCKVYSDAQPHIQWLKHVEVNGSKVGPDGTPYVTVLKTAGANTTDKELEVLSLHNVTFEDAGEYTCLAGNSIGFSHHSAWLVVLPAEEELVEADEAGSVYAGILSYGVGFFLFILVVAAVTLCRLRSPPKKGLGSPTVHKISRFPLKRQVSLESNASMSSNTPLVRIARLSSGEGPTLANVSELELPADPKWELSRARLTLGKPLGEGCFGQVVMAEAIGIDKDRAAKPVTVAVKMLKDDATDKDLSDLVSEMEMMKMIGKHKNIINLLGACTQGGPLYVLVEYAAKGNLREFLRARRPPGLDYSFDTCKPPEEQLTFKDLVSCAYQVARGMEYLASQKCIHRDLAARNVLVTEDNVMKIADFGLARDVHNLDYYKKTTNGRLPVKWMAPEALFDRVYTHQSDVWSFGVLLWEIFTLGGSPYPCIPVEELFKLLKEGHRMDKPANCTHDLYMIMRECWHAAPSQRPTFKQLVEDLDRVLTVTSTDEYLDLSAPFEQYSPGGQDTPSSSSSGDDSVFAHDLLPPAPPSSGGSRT
Chain of Serine/threonine-protein kinase VRK2 (Homo sapiens) (Q86Y07 whole entry): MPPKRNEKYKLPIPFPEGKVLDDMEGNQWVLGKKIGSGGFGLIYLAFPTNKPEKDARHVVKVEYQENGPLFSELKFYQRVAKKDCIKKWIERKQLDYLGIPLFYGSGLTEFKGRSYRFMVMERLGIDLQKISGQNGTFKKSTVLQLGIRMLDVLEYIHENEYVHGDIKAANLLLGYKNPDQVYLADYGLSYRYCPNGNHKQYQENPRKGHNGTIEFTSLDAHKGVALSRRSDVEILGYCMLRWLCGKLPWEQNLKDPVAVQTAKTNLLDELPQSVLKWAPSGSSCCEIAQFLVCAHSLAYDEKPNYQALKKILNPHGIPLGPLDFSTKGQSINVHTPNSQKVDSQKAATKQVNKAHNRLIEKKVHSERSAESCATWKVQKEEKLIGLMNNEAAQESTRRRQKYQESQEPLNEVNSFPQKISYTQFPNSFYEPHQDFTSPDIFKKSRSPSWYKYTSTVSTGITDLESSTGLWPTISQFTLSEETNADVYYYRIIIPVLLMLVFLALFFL
Chain of Dual specificity mitogen-activated protein kinase kinase 4 (Homo sapiens) (P45985 whole entry): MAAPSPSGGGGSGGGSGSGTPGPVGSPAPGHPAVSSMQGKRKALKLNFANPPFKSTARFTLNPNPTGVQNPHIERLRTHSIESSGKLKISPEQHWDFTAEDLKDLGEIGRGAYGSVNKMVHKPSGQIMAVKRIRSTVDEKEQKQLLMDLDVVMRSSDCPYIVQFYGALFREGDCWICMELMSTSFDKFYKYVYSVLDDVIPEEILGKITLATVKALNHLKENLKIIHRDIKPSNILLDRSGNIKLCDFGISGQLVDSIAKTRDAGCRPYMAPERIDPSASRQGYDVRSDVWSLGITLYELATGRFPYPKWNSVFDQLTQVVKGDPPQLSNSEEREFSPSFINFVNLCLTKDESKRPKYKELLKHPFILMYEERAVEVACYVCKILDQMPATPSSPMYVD
Chain of Mitogen-activated protein kinase kinase kinase 1 (Homo sapiens) (Q13233 whole entry): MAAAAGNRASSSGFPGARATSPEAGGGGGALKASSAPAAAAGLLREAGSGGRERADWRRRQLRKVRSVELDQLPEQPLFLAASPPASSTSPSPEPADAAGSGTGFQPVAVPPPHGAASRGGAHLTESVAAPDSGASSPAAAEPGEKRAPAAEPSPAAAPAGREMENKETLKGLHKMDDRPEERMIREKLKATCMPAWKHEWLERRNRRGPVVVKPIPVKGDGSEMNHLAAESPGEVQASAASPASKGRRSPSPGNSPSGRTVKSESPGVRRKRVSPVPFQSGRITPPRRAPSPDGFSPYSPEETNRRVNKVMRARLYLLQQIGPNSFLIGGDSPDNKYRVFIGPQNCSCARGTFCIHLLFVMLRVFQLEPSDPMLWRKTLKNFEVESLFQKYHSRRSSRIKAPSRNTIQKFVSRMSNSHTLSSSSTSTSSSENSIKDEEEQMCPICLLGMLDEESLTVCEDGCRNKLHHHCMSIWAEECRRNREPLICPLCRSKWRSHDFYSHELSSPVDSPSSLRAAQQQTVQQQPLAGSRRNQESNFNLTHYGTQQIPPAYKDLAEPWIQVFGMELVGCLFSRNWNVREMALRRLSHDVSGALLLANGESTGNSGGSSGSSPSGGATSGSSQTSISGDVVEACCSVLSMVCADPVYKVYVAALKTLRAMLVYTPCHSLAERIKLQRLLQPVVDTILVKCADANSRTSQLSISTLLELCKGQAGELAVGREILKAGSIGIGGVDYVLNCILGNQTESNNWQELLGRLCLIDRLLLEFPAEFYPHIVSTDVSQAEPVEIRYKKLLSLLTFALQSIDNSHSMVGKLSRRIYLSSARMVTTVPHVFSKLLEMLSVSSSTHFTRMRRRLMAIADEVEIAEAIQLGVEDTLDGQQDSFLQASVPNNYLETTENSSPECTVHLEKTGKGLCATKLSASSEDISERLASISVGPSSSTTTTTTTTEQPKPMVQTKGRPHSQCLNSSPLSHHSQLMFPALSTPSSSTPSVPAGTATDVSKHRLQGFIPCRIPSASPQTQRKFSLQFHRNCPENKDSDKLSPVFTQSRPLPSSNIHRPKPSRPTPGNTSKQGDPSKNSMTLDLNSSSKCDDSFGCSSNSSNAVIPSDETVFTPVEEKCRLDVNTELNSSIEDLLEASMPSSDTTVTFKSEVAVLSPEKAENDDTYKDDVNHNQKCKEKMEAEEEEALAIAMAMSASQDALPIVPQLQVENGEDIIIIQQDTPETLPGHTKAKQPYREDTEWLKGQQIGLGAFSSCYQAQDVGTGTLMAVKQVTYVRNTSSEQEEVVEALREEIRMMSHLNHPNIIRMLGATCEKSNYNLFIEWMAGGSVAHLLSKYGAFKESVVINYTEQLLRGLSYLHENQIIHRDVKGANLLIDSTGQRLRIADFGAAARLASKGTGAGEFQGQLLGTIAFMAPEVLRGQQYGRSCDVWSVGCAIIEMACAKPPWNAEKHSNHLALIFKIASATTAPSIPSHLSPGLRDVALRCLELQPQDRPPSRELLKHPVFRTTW

Regarding `C[C@@H]1CN(c2cc(-c3nn(C)c4ccc(OC5(C)CC5)cc34)ncn2)C[C@H](C)O1` [MLi-2-NC], the residual activity in test [1] (setting [19]) was 64%; in test [2] (setting [19]), 100%; in test [3] (setting [19]), 100%; in test [4] (setting [19]), 85%; in test [5] (setting [19]) it was 64%; in test [6] (setting [19]), 100%. The residual activity is 92% in test [7] (setting [19]); 73% in test [8] (setting [19]); 82% in [9] (setting [19]); 100% in [10] (setting [19]); 100% in test [11] (setting [19]); 88% in [12] (setting [19]). For the same molecule, the residual activity in test [13] (setting [19]) was 100%; in test [14] (setting [19]), 85%; in test [15] (setting [19]) it was 100%; in test [16] (setting [19]), 73%. The inhibition was 7.83% in [17] and 13.1% in [18].

With `C[C@@H]1CN(c2cc(-c3n[nH]c4ccc(OC5(C)CC5)cc34)ncn2)C[C@H](C)O1` [MLi-2], the residual activity in test [1] (setting [20]) was 65%; in test [2] (setting [20]), 82%; in test [3] (setting [20]) it was 86%; in test [4] (setting [20]) it was 46%; in [5] (setting [20]), 67%; in test [6] (setting [20]), 100%. Also, the residual activity in [7] (setting [20]) is 63%; in test [8] (setting [20]), 93%; in test [9] (setting [20]), 73%; in test [10] (setting [20]), 78%; in test [11] (setting [20]) it was 68%; in test [12] (setting [20]) it was 92%. For the same molecule, the residual activity in test [13] (setting [20]) is 87%; in test [14] (setting [20]), 64%; in test [15] (setting [20]), 80%; in test [16] (setting [20]), 65%. The results for the inhibition in test [17] and in test [18] were 1.16% and -0.6%, respectively.
